The values that follow come from patent US8835571B2, “Fatty acid derivative-polymer conjugate” (Sucampo AG, priority 2012, dated 2014).

The nature of this data set: incorporation of unoprostone isopropyl into MPEG-hexPLA polymer micelles. Format: physicochemical. On the procedure: The incorporation studies were carried out by a standard formulation protocol. Briefly, a defined amount of the provided unoprostone isopropyl ethanol solution was taken and the ethanol rapidly evaporated, the remaining compound was re-dissolved together with the MPEG-hexPLA excipient in acetone and added dropwise under sonication into water, followed by evaporation of the organic solvent and equilibration of the micelle solution overnight.
As it can be seen, for loadings up to 500 mg unoprostone isopropyl per gram MPEGhexPLA, loading efficiencies higher than 80% could be obtained by this simple procedure (FIG. 1), corresponding to 2.22 mg drug per mL formulation (FIG. 2). […] The latter formulations with a minimum of drug loss in the formulation procedure gave transparent formulations.

Bounds are passed on as bounds.

Consider `CCCCCCCC(=O)CC[C@@H]1[C@@H](C/C=C\CCCC(=O)OC(C)C)[C@@H](O)C[C@H]1O` [unoprostone isopropyl, (+)-isopropyl (Z)-7-[(1R,2R,3R,5S)-3,5-dihydroxy-2-(3-oxodecyl)cyclopentyl]hept-5-enoate], for which the “obtained drug concentration in formulation” value (loading 500 mg per gram MPEGhexPLA (FIG. 2)) is on record as 2.22 mg drug per mL formulation. Besides, where the note is “loadings up to 300 mg/g”, the Incorporation efficiencies is greater than 90% and the “obtained drug concentration in formulation” value was no more than 1.67 mg/mL. Further, where the note is “loadings up to 500 mg unoprostone isopropyl per gram MPEGhexPLA (FIG. 1)”, the loading efficiencies entry is “higher than 80%”.
